# Experimental data published in patent publication US11939314B2, “Quinolin-2-one derivatives” (MERCK PATENT GMBH, priority 2016, dated 2024).
# pIC50: −log10 of the molar value. Counter-ions that a name gives are not always drawn.
# Experiments:
# c-Kit(V654A) = target: T1, c-Kit(V654A) (Homo sapiens, UniProt P10721, V654A); assay: c-Kit(V654A) assay; format: biochemical; conditions: recombinant human c-Kit aa 544-end, 200 μM ATP, 1.4E-06 means 1.4×10^−6, read-out: Inhibition (IC50) of c-KIT (V654A)
# T1 construct: amino acids 544-end containing the V654A mutation; GST (N)
# Outline: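 Radiometric filter-binding read-out: substrate 33P incorporation counted by scintillation after P30 filtermat washes in 75 mM phosphoric acid and methanol. Enzyme: N-GST recombinant human c-Kit aa 544-end carrying V654A.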
# PDGFRalpha(V561D) = target: T2, PDGFRalpha(V561D) (Homo sapiens, UniProt P16234, V561D); assay: PDGFRalpha(V561D) assay; format: biochemical; conditions: recombinant human PDGFRalpha aa 550-end, 200 μM ATP, 1.4E-06 means 1.4×10^−6, read-out: Inhibition (IC50) of PDGFRα (V561D)
# T2 construct: recombinant human PDGFRalpha, amino acids 550end containing the V561 D mutation; 6His (N)
# Outline: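 Radiometric filter-binding assay: substrate phosphorylation by recombinant N-His-tagged human PDGFRα 550-end V561D was quenched with 3% phosphoric acid after 40 min at room temperature, then counted.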
# T2 sequence (P16234 550-1089 V561D): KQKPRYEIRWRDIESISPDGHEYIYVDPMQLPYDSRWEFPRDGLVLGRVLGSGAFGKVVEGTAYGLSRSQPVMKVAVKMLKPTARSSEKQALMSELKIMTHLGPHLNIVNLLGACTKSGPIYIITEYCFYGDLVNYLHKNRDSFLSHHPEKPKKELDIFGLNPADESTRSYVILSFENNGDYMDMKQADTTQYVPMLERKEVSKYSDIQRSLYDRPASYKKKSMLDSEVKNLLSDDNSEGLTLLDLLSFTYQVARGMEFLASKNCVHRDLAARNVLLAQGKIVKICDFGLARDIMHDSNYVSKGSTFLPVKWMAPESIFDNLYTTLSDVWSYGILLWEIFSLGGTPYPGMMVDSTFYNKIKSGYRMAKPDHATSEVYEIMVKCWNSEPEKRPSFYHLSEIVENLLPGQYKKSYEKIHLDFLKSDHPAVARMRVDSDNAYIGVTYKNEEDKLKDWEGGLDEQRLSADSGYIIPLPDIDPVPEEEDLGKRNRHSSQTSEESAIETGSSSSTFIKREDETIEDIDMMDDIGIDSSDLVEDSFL
# T1 sequence (P10721 544-976 V654A): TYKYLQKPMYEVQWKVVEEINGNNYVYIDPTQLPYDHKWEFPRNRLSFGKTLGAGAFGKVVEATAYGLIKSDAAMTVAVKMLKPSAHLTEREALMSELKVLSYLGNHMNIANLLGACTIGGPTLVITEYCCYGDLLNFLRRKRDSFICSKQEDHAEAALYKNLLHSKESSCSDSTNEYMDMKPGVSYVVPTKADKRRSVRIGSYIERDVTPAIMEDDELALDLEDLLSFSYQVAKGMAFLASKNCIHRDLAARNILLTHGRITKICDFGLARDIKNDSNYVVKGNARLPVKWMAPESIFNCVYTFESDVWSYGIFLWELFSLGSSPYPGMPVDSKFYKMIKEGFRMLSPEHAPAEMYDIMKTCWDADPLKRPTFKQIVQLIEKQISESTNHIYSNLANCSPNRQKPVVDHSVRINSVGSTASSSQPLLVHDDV
smiles,measurement,setting,value
"O=C(c1ccc(-n2cc(-c3cc4cc(F)ccc4[nH]c3=O)nn2)cc1)N1C[C@H](O)CO1 [A276, 6-fluoro-3-{1-[4-((S)-4-hydroxy-isoxazolidine-2-carbonyl)-phenyl]-1H-[1,2,3]triazol-4-yl}-1H-quinolin-2-one]",pIC50,c-Kit(V654A),7.27
same,pIC50,PDGFRalpha(V561D),8.85
"O=C(c1ccc(-n2cc(-c3cc4cc(Cl)ccc4[nH]c3=O)nn2)cc1)N1C[C@H](O)CO1 [A277, 6-chloro-3-{1-[4-((S)-4-hydroxy-isoxazolidine-2-carbonyl)-phenyl]-1H-[1,2,3]triazol-4-yl}-1H-quinolin-2-one]",pIC50,c-Kit(V654A),7.52
same,pIC50,PDGFRalpha(V561D),8.59
"O=C(c1ccc(-n2cc(-c3cc4cc(F)ccc4[nH]c3=O)nn2)cc1)N1CCC[C@@H]1CN1CCCC1 [A278, 6-fluoro-3-{1-[4-((R)-2-pyrrolidin-1-ylmethyl-pyrrolidine-1-carbonyl)-phenyl]-1H-[1,2,3]triazol-4-yl}-1H-quinolin-2-one]",pIC50,c-Kit(V654A),7.77
same,pIC50,PDGFRalpha(V561D),8.82
"O=C(c1ccc(-n2cc(-c3cc4cc(F)ccc4[nH]c3=O)nn2)cc1)N1CCC[C@H]1CN1CCCC1 [A279, 6-fluoro-3-{1-[4-((S)-2-pyrrolidin-1-ylmethyl-pyrrolidine-1-carbonyl)-phenyl]-1H-[1,2,3]triazol-4-yl}-1H-quinolin-2-one]",pIC50,c-Kit(V654A),7.85
same,pIC50,PDGFRalpha(V561D),9.14
"O=C(c1ccc(-n2cc(-c3cc4cc(F)ccc4[nH]c3=O)nn2)cc1)N1CCC1 [A280, 3-{1-[4-(azetidine-1-carbonyl)-phenyl]-1H-[1,2,3]triazol-4-yl}-6-fluoro-1H-quinolin-2-one]",pIC50,c-Kit(V654A),7.11
same,pIC50,PDGFRalpha(V561D),7.28
"CN1CCN(C(=O)C2CCCN2C(=O)c2ccc(-n3cc(-c4cc5cc(F)ccc5[nH]c4=O)nn3)cc2)CC1 (centres unmarked) [A281, 6-fluoro-3-(1-{4-[2-(4-methyl-piperazine-1-carbonyl)-pyrrolidine-1-carbonyl]-phenyl}-1H-[1,2,3]triazol-4-yl)-1H-quinolin-2-one]",pIC50,c-Kit(V654A),7.24
same,pIC50,PDGFRalpha(V561D),8.00
"CN1CCN(C(=O)c2ccc(-n3cc(-c4cc5cc(F)ccc5[nH]c4=O)cn3)cc2)CC1 [A296, 6-fluoro-3-{1-[4-(4-methyl-piperazine-1-carbonyl)-phenyl]-1H-pyrazol-4-yl}-1H-quinolin-2-one]",pIC50,c-Kit(V654A),7.42
same,pIC50,PDGFRalpha(V561D),7.85
"CO[C@H]1CCN(C(=O)c2ccc(-n3cc(-c4cc5cc(F)ccc5[nH]c4=O)cn3)cc2)C1 [A297, 6-fluoro-3-{1-[4-((S)-3-methoxy-pyrrolidine-1-carbonyl)-phenyl]-1H-pyrazol-4-yl}-1H-quinolin-2-one]",pIC50,c-Kit(V654A),7.18
same,pIC50,PDGFRalpha(V561D),6.62
"CO[C@@H]1CCN(C(=O)c2ccc(-n3cc(-c4cc5cc(F)ccc5[nH]c4=O)cn3)cc2)C1 [A298, 6-fluoro-3-{1-[4-((R)-3-methoxy-pyrrolidine-1-carbonyl)-phenyl]-1H-pyrazol-4-yl}-1H-quinolin-2-one]",pIC50,c-Kit(V654A),7.39
same,pIC50,PDGFRalpha(V561D),7.68
"COCCO[C@H]1CCN(C(=O)c2ccc(-n3cc(-c4cc5cc(F)ccc5[nH]c4=O)cn3)cc2)C1 [A299, 6-fluoro-3-(1-{4-[(S)-3-(2-methoxy-ethoxy)-pyrrolidine-1-carbonyl]-phenyl}-1H-pyrazol-4-yl)-1H-quinolin-2-one]",pIC50,c-Kit(V654A),7.24
same,pIC50,PDGFRalpha(V561D),7.64
"CO[C@@H]1CN(C(=O)c2ccc(-n3cc(-c4cc5cc(F)ccc5[nH]c4=O)cn3)cc2)C[C@H]1OC [A300, 3-{1-[4-((3R,4R)-3,4-dimethoxy-pyrrolidine-1-carbonyl)-phenyl]-1H-pyrazol-4-yl}-6-fluoro-1H-quinolin-2-one]",pIC50,c-Kit(V654A),7.17
same,pIC50,PDGFRalpha(V561D),9.12
"CO[C@@H]1C[C@@H](CO)N(C(=O)c2ccc(-n3cc(-c4cc5cc(F)ccc5[nH]c4=O)cn3)cc2)C1 [A301, 6-fluoro-3-{1-[4-((2S,4R)-2-hydroxymethyl-4-methoxy-pyrrolidine-1-carbonyl)-phenyl]-1H-pyrazol-4-yl}-1H-quinolin-2-one]",pIC50,c-Kit(V654A),7.37
same,pIC50,PDGFRalpha(V561D),9.00
"CO[C@@H]1C[C@H](CO)N(C(=O)c2ccc(-n3cc(-c4cc5cc(F)ccc5[nH]c4=O)cn3)cc2)C1 [A302, 6-fluoro-3-{1-[4-((2R,4R)-2-hydroxymethyl-4-methoxy-pyrrolidine-1-carbonyl)-phenyl]-1H-pyrazol-4-yl}-1H-quinolin-2-one]",pIC50,c-Kit(V654A),7.51
same,pIC50,PDGFRalpha(V561D),8.92
"CO[C@H]1CN(C(=O)c2ccc(-n3cc(-c4cc5cc(F)ccc5[nH]c4=O)cn3)cc2)C[C@@H]1OC [A303, 3-{1-[4-((3S,4S)-3,4-dimethoxy-pyrrolidine-1-carbonyl)-phenyl]-1H-pyrazol-4-yl}-6-fluoro-1H-quinolin-2-one]",pIC50,c-Kit(V654A),7.43
same,pIC50,PDGFRalpha(V561D),8.22
"O=C(c1ccc(-n2cc(-c3cc4cc(F)c(F)cc4[nH]c3=O)nn2)cc1)N1C[C@H]2CNC[C@H]2C1 [A307, 6,7-difluoro-3-{1-[4-((cis)-hexahydro-pyrrolo[3,4-c]pyrrole-2-carbonyl)-phenyl]-1H-[1,2,3]triazol-4-yl}-1H-quinolin-2-one]",pIC50,c-Kit(V654A),7.77
same,pIC50,PDGFRalpha(V561D),6.62
"O=C(c1ccc(-n2cc(-c3cc4cc(F)ccc4[nH]c3=O)nn2)cc1)N1C[C@H]2CNC[C@H]2C1 [A308, 6-fluoro-3-{1-[4-((cis)-hexahydro-pyrrolo[3,4-c]pyrrole-2-carbonyl)-phenyl]-1H-[1,2,3]triazol-4-yl}-1H-quinolin-2-one]",pIC50,c-Kit(V654A),8.00
same,pIC50,PDGFRalpha(V561D),7.01
"N[C@@H]1CCCN(C(=O)c2ccc(-n3cc(-c4cc5cc(F)c(F)cc5[nH]c4=O)nn3)cc2)C1 [A309, 3-{1-[4-((R)-3-amino-piperidine-1-carbonyl)-phenyl]-1H-[1,2,3]triazol-4-yl}-6,7-difluoro-1H-quinolin-2-one hydrochloride]",pIC50,c-Kit(V654A),7.20
same,pIC50,PDGFRalpha(V561D),6.89
"N[C@H]1CCCN(C(=O)c2ccc(-n3cc(-c4cc5cc(F)c(F)cc5[nH]c4=O)nn3)cc2)C1 [A310, 3-{1-[4-((S)-3-amino-piperidine-1-carbonyl)-phenyl]-1H-[1,2,3]triazol-4-yl}-6,7-difluoro-1H-quinolin-2-one hydrochloride]",pIC50,c-Kit(V654A),7.36
same,pIC50,PDGFRalpha(V561D),7.07
"CN[C@@H]1CCN(C(=O)c2ccc(-n3cc(-c4cc5cc(F)ccc5[nH]c4=O)nn3)cc2)C1 [A311, 6-Fluoro-3-{1-[4-((R)-3-methylamino-pyrrolidine-1-carbonyl)-phenyl]-1H-[1,2,3]triazol-4-yl}-1H-quinolin-2-one hydrochloride]",pIC50,c-Kit(V654A),7.68
same,pIC50,PDGFRalpha(V561D),6.51
"CN[C@H]1CCN(C(=O)c2ccc(-n3cc(-c4cc5cc(F)ccc5[nH]c4=O)nn3)cc2)C1 [A312, 6-fluoro-3-{1-[4-((S)-3-methylamino-pyrrolidine-1-carbonyl)-phenyl]-1H-[1,2,3]triazol-4-yl}-1H-quinolin-2-one hydrochloride]",pIC50,c-Kit(V654A),7.21
same,pIC50,PDGFRalpha(V561D),6.54
"N[C@@H]1CCN(C(=O)c2ccc(-n3cc(-c4cc5cc(F)ccc5[nH]c4=O)nn3)cc2)C1 [A313, 3-{1-[4-((R)-3-amino-pyrrolidine-1-carbonyl)-phenyl]-1H-[1,2,3]triazol-4-yl}-6-fluoro-1H-quinolin-2-one hydrochloride]",pIC50,c-Kit(V654A),7.59
same,pIC50,PDGFRalpha(V561D),6.48
"O=C(c1ccc(-n2cc(-c3cc4cc(F)ccc4[nH]c3=O)nn2)cc1)N1CCN[C@@H](CO)C1 [A314, 6-fluoro-3-{1-[4-((R)-3-hydroxymethyl-piperazine-1-carbonyl)-phenyl]-1H-[1,2,3]triazol-4-yl}-1H-quinolin-2-one hydrochloride]",pIC50,c-Kit(V654A),7.14
same,pIC50,PDGFRalpha(V561D),6.74
"O=C(c1ccc(-n2cc(-c3cc4cc(F)ccc4[nH]c3=O)nn2)cc1)N1CCNC[C@H]1CO [A315, 6-fluoro-3-{1-[4-((S)-2-hydroxymethyl-piperazine-1-carbonyl)-phenyl]-1H-[1,2,3]triazol-4-yl}-1H-quinolin-2-one]",pIC50,c-Kit(V654A),6.70
same,pIC50,PDGFRalpha(V561D),5.85
"O=C(c1ccc(-n2cc(-c3cc4cc(F)ccc4[nH]c3=O)nn2)cc1)N1CCNC[C@@H]1CO [A316, 6-fluoro-3-{1-[4-((R)-2-hydroxymethyl-piperazine-1-carbonyl)-phenyl]-1H-[1,2,3]triazol-4-yl}-1H-quinolin-2-one]",pIC50,c-Kit(V654A),6.92
same,pIC50,PDGFRalpha(V561D),6.28
"N[C@@H]1[C@H]2CN(C(=O)c3ccc(-n4cc(-c5cc6cc(F)ccc6[nH]c5=O)nn4)cc3)C[C@@H]12 [A317, 3-{1-[4-(6-amino-3-aza-bicyclo[3.1.0]hexane-3-carbonyl)-phenyl]-1H-[1,2,3]triazol-4-yl}-6-fluoro-1H-quinolin-2-one]",pIC50,c-Kit(V654A),6.92
same,pIC50,PDGFRalpha(V561D),5.85
"CN(C)C[C@@H]1CCCN1C(=O)c1ccc(-n2cc(-c3cc4cc(Cl)ccc4[nH]c3=O)nn2)cc1 [A318, 6-chloro-3-{1-[4-((S)-2-dimethylaminomethyl-pyrrolidine-1-carbonyl)-phenyl]-1H-[1,2,3]triazol-4-yl}-1H-quinolin-2-one]",pIC50,c-Kit(V654A),7.70
same,pIC50,PDGFRalpha(V561D),7.77
"CN(C)C[C@@H]1CCCN1C(=O)c1ccc(-n2cc(-c3cc4cc(F)ccc4[nH]c3=O)nn2)cc1 [A319, 3-{1-[4-((S)-2-dimethylaminomethyl-pyrrolidine-1-carbonyl)-phenyl]-1H-[1,2,3]triazol-4-yl}-6-fluoro-1H-quinolin-2-one]",pIC50,c-Kit(V654A),7.57
same,pIC50,PDGFRalpha(V561D),7.44
"CN(C)C[C@H]1CCCN1C(=O)c1ccc(-n2cc(-c3cc4cc(F)c(F)cc4[nH]c3=O)nn2)cc1 [A320, 3-{1-[4-((R)-2-dimethylaminomethyl-pyrrolidine-1-carbonyl)-phenyl]-1H-[1,2,3]triazol-4-yl}-6,7-difluoro-1H-quinolin-2-one]",pIC50,c-Kit(V654A),7.32
same,pIC50,PDGFRalpha(V561D),7.00
